“And” between values parts separate entries of the source, which are not always exact repeats. Equal values may be shown once. Read-outs that look alike come from different tables or passages of the source. Marks after values point to notes of the source that are not given here.
Legend:
[1] = biological target: T1, CB1 (rCB1) (Rattus norvegicus, UniProt P20272); test: Single-point radioligand displacement screen; assay type: binding
[2] = biological target: T2, hCB1 (Homo sapiens, UniProt P21554); test: bioSensAll ebBRET signaling profiling, hCB1; assay type: cell-based; design: host or cells: HEK293SL cells, transient PEI transfection; settings: for Barr2+GRK2 hCB1 response: Barr2+GRK2 biosensor; for Gi1 hCB1 / GoB hCB1: single replicate values, FigS6a; for Emax: normalized to CP-55,940
T2 sequence (P21554 whole entry): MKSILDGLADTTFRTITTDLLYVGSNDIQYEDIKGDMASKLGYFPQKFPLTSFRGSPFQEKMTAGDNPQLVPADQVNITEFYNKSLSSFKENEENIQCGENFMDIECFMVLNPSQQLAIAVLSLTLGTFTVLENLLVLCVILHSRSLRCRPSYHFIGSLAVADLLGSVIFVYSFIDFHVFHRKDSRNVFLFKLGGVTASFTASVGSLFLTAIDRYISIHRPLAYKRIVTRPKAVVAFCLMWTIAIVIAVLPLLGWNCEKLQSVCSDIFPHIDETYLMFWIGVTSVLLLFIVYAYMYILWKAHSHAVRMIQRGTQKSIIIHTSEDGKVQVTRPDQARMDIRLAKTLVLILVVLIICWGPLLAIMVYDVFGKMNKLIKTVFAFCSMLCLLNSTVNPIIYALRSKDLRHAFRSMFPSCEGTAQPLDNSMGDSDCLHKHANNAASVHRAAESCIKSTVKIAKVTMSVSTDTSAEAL

[3] = Dynamic light scattering, colloidal aggregation; assay type: physicochemical; settings: Log[compound, replicates, sheet FigS2b
Procedure: Samples were prepared as 8-point half-log dilutions in filtered 50 mM KPi buffer, pH 7.0 with final DMSO concentration at 1% (v/v). Colloidal particle formation was measured using DynaPro Plate Reader II (Wyatt Technologies). All compounds were screened in triplicate.

[4] = biological target: T1, CB1 (rCB1); test: Radioligand competition binding, [3H]-CP-55,940, rat brain membranes
[5] = biological target: T2, hCB1; test: Lance Ultra cAMP accumulation assay, CHO cells; assay type: cell-based; design: expressed in transfected cells; settings: for cAMP assay signal, concentration-response point: replicates, sheet FigureS2a;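 on all read-outs here: human CB1R stably expressed in CHO cells, ligands co-incubated with forskolin at room temperature, read-out is lowering of forskolin-stimulated cAMP accumulation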

T1 sequence (P20272 whole entry): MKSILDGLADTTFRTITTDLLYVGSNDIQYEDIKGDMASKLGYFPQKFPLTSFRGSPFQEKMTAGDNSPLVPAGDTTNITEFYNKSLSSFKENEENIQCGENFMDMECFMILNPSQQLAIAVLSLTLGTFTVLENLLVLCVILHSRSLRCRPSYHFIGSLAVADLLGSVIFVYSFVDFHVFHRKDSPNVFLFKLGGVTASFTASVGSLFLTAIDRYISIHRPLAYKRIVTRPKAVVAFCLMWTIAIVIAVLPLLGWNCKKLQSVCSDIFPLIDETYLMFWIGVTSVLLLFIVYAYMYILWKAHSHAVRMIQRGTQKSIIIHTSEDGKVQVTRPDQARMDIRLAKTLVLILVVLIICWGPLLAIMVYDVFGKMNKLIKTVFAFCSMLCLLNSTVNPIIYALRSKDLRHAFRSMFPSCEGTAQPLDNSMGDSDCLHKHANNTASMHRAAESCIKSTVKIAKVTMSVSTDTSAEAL

For `Cn1nc(-c2nnc(C(C)(C)Oc3ccc(Cl)cc3)o2)c2ccccc2c1=O` [‘0450], the “% 1H-CP-55,940 displacement (mean) from single point screen” value ([1]; 10 µM, 1 µM or 300 nM by cell colour (not visible)) was 80.28%, the rep1_displacement ([1]; Figure 1c source data, replicate 1) was 80.6 and the rep2_displacement ([1]; Figure 1c source data, replicate 2) was 81.2. The rep3_displacement ([1]; Figure 1c source data, replicate 3) was 79, the “Barr2+GRK2 hCB1 response” value ([2]; Log [Compound] (M) -4.22186) was 27.1048 and the “Barr2+GRK2 hCB1 response” value ([2]; Log [Compound] (M) -4.63927) was -24.5851. The “Barr2+GRK2 hCB1 response” value ([2]; Log [Compound] (M) -5.05788) was -35.4335, the “Barr2+GRK2 hCB1 response” value ([2]; Log [Compound] (M) -5.47381) was -53.9398 and the “Barr2+GRK2 hCB1 response” value ([2]; Log [Compound] (M) -5.89285) was -49.1537. For the same compound, the “Barr2+GRK2 hCB1 response” value ([2]; Log [Compound] (M) -6.31878) was -46.282, the “Barr2+GRK2 hCB1 response” value ([2]; Log [Compound] (M) -6.72585) was -46.9202 and the “Barr2+GRK2 hCB1 response” value ([2]; Log [Compound] (M) -7.14267) was -54.5779. For the same compound, the “Barr2+GRK2 hCB1 response” value ([2]; Log [Compound] (M) -7.55284) was -56.4924, the “Barr2+GRK2 hCB1 response” value ([2]; Log [Compound] (M) -8) was -48.8346 and the “Barr2+GRK2 hCB1 response” value ([2]; Log [Compound] (M) -8.22186) was -5.441. For the same compound, the “Barr2+GRK2 hCB1 response” value ([2]; Log [Compound] (M) -8.39794) was -31.2856, the “Barr2+GRK2 hCB1 response” value ([2]; Log [Compound] (M) -8.68787) was -55.2161 and the “Barr2+GRK2 hCB1 response” value ([2]; Log [Compound] (M) -9.15521) was -35.1145. The “Barr2+GRK2 hCB1 response” value ([2]; Log [Compound] (M) -9.61989) was -47.5583, the “Barr2+GRK2 hCB1 response” value ([2]; Log [Compound] (M) -10.0969) was -52.0253 and the “Barr2+GRK2 hCB1 response” value ([2]; Log [Compound] (M) -10.5529) was -34.4763. The “Barr2+GRK2 hCB1 response” value ([2]; Log [Compound] (M) -11.0177) was -42.1341, the “Barr2+GRK2 hCB1 response” value ([2]; Log [Compound] (M) -11.4949) was -48.5155 and the “Barr2+GRK2 hCB1 response” value ([2]; Log [Compound] (M) -11.9208) was -49.1537. The “Barr2+GRK2 hCB1 response” value ([2]; Log [Compound] (M) -12.3979) was -55.5351, the “Barr2+GRK2 hCB1 response” value ([2]; Log [Compound] (M) -12.8861) was -37.0289 and the “Barr2+GRK2 hCB1 response” value ([2]; Log [Compound] (M) -13.3979) was -10.8649. The “Gi1 hCB1” value ([2]; Log [Compound] (M) -4.22186) was 20.433, the “GoB hCB1” value ([2]; Log [Compound] (M) -4.22186) was 28.3973 and the “Gi1 hCB1” value ([2]; Log [Compound] (M) -4.63927) was 13.3222. The “GoB hCB1” value ([2]; Log [Compound] (M) -4.63927) was 13.6053, the “Gi1 hCB1” value ([2]; Log [Compound] (M) -5.05788) was 9.41 and the “GoB hCB1” value ([2]; Log [Compound] (M) -5.05788) was 19.1089. For the same compound, the “Gi1 hCB1” value ([2]; Log [Compound] (M) -5.47381) was 7.763, the “GoB hCB1” value ([2]; Log [Compound] (M) -5.47381) was 13.8657 and the “Gi1 hCB1” value ([2]; Log [Compound] (M) -5.89285) was 5.34. For the same compound, the “GoB hCB1” value ([2]; Log [Compound] (M) -5.89285) was 8.258, the “Gi1 hCB1” value ([2]; Log [Compound] (M) -6.31878) was 2.791 and the “GoB hCB1” value ([2]; Log [Compound] (M) -6.31878) was 3.397. The “Gi1 hCB1” value ([2]; Log [Compound] (M) -6.72585) was -1.469, the “GoB hCB1” value ([2]; Log [Compound] (M) -6.72585) was -0.5617 and the “Gi1 hCB1” value ([2]; Log [Compound] (M) -7.14267) was -3.893. The “GoB hCB1” value ([2]; Log [Compound] (M) -7.14267) was -2.489, the “Gi1 hCB1” value ([2]; Log [Compound] (M) -7.55284) was -6.6323 and the “GoB hCB1” value ([2]; Log [Compound] (M) -7.55284) was -6.586. For the same compound, the “Gi1 hCB1” value ([2]; Log [Compound] (M) -8) was -3.861, the “GoB hCB1” value ([2]; Log [Compound] (M) -8) was -8.513 and the “Gi1 hCB1” value ([2]; Log [Compound] (M) -8.22186) was 0.6527. The “GoB hCB1” value ([2]; Log [Compound] (M) -8.22186) was -4.433, the “Gi1 hCB1” value ([2]; Log [Compound] (M) -8.39794) was -6.221 and the “GoB hCB1” value ([2]; Log [Compound] (M) -8.39794) was -7.35. For the same compound, the “Gi1 hCB1” value ([2]; Log [Compound] (M) -8.68787) was -4.3993, the “GoB hCB1” value ([2]; Log [Compound] (M) -8.68787) was -5.892 and the “Gi1 hCB1” value ([2]; Log [Compound] (M) -9.15521) was -5.159. The “GoB hCB1” value ([2]; Log [Compound] (M) -9.15521) was -7.419, the “Gi1 hCB1” value ([2]; Log [Compound] (M) -9.61989) was -4.621 and the “GoB hCB1” value ([2]; Log [Compound] (M) -9.61989) was -5.371. The “Gi1 hCB1” value ([2]; Log [Compound] (M) -10.0969) was -6.442, the “GoB hCB1” value ([2]; Log [Compound] (M) -10.0969) was -8.097 and the “GoB hCB1” value ([2]; Log [Compound] (M) -10.5529) was -7.003. For the same compound, the “Gi1 hCB1” value ([2]; Log [Compound] (M) -11.0177) was -5.524, the “GoB hCB1” value ([2]; Log [Compound] (M) -11.0177) was -9.104 and the “Gi1 hCB1” value ([2]; Log [Compound] (M) -11.4949) was -5.872. The “GoB hCB1” value ([2]; Log [Compound] (M) -11.4949) was -8.479, the “Gi1 hCB1” value ([2]; Log [Compound] (M) -11.9208) was -6.363 and the “GoB hCB1” value ([2]; Log [Compound] (M) -11.9208) was -7.454. The “Gi1 hCB1” value ([2]; Log [Compound] (M) -12.3979) was -5.935, the “GoB hCB1” value ([2]; Log [Compound] (M) -12.3979) was -8.392 and the “Gi1 hCB1” value ([2]; Log [Compound] (M) -12.8861) was -4.653. The “GoB hCB1” value ([2]; Log [Compound] (M) -12.8861) was -8.739, the “Gi1 hCB1” value ([2]; Log [Compound] (M) -13) was -5.191 and the “GoB hCB1” value ([2]; Log [Compound] (M) -13) was -7.871. For the same compound, the “Gi1 hCB1” value ([2]; Log [Compound] (M) cell empty) was -4.795, the “GoB hCB1” value ([2]; Log [Compound] (M) cell empty) was -4.173 and the “pEC50 [95% CI]” value ([2]; hCB1 GoB) was 5.6 [3.0 – 6.2]. For the same compound, the Emax ([2]; read-out: Emax [95% CI], hCB1 Gi1) was 49%, the Emax ([2]; read-out: Emax [95% CI], hCB1 GoB) was 36% and the DLS scattering intensity ([3]; uM] 0) was 721249 and 1482870 and 678793. For the same compound, the DLS scattering intensity ([3]; uM] 0.5) was 820738 and 723783 and 889231, the DLS scattering intensity ([3]; uM] 1) was 2818066 and 935392 and 954008 and the DLS scattering intensity ([3]; uM] 1.49996) was 37596765 and 31006318 and 24739178. The DLS scattering intensity ([3]; uM] 2) was 93917555 and 151664189 and 85385693, the DLS scattering intensity ([3]; uM] -0.500011) was 759174 and 1269323 and 983915 and the DLS scattering intensity ([3]; uM] -1) was 623247 and 1064137 and 868483. For the same compound, the DLS scattering intensity ([3]; uM] -1.5) was 703949 and 596678 and 546381, the “radioligand binding remaining, competition curve (Figure2e), replicate values” (“radioligand binding remaining” for short) ([4]; log[drug] -3.643) was 3.776 and 13.0342 and 10.5924 and the “radioligand binding remaining” value ([4]; log[drug] -4.35655) was -5.187 and 0.4808 and -3.246. The “radioligand binding remaining” value ([4]; log[drug] -5.07) was 1.22 and 4.986 and -3.564, the “radioligand binding remaining” value ([4]; log[drug] -5.783) was 44.8894 and 48.8782 and 38.7216 and the “radioligand binding remaining” value ([4]; log[drug] -6.496) was 82.7231 and 84.8647 and 75.4685. For the same compound, the “radioligand binding remaining” value ([4]; log[drug] -7.21) was 103.471 and 87.6068 and 85.0402, the “radioligand binding remaining” value ([4]; log[drug] -7.923) was 98.6842 and 84.2236 and 81.6265 and the “radioligand binding remaining” value ([4]; log[drug] -8.636) was 102.059 and 98.0413 and 100.669. The “pKi [95% CI]” value ([4]; rCB1) was 6.16 [5.99 – 6.34], the “cAMP assay signal, concentration-response point” value (shortened to “cAMP assay signal”) ([5]; compound 0.01 nM) was 0.002801 and 0.002457 and 0.003311 and the “cAMP assay signal” value ([5]; compound 0.1 nM) was 0.004608* and 0.002375 and 0.002849. The “cAMP assay signal” value ([5]; compound 1 nM) was 0.002336 and 0.002132 and 0.002532, the “cAMP assay signal” value ([5]; compound 10 nM) was 0.002645 and 0.002538 and 0.002288 and the “cAMP assay signal” value ([5]; compound 100 nM) was 0.002008 and 0.002532 and 0.002421. The “cAMP assay signal” value ([5]; compound 1000 nM) was 0.002545 and 0.002096 and 0.002506, the “cAMP assay signal” value ([5]; compound 10000 nM) was 0.001462 and 0.001302 and 0.001515 and the “cAMP assay signal” value ([5]; compound 100000 nM) was 0.0002057* and 0.0001994* and 0.0002162*. For the same compound, the “agonism, inhibition of forskolin-stimulated cAMP” value ([5]; hCB1-expressing cells, in words) was “modest agonism”.
